The values that follow are results of earlier work, collected in US10332616B2, “Movable type method applied to protein-ligand binding” (University of Florida Research Foundation, Inc., priority 2013, dated 2019).

For one data set the following is noted: aqueous solvation free energy, charged compounds (ions).
For the compound `C=CC(=O)O` [i062, acrylicacid, reference compound], the “Exp. ΔGsolv” value was -74.00 kcal/mol.
With `O=C(O)CCl` [i119, chloroaceticacid, reference compound], the “Exp. ΔGsolv” value was -69.70 kcal/mol.
Turning to `CCC(=O)O` [i060, propanoicacid, reference compound], the “Exp. ΔGsolv” value was -76.20 kcal/mol.
On to `CCCCCC(=O)O` [i061, hexanoicacid, reference compound], for which the “Exp. ΔGsolv” value was -74.60 kcal/mol.
`O=C(O)C(Cl)Cl` [i120, dichloroaceticacid, reference compound]: the “Exp. ΔGsolv” value is -62.30 kcal/mol.

Staying with this data set, now noted: experimental solvation free energy, neutral compounds test set.
For the compound `CCCCCCO` [Compound 0054hex], the “Exp. ΔGsolv” value is -4.36 kcal/mol.
As to `COC` [Compound 0060dim], the “Exp. ΔGsolv” value was -1.92 kcal/mol.
With `COP(=O)(OC)C(O)C(Cl)(Cl)Cl` (stereo not shown) [test1055], the “Exp. ΔGsolv” value was -12.7 kcal/mol.
`COC(C)C` [Compound 0065met]: the “Exp. ΔGsolv” value is -2.01 kcal/mol.
For `CCOC(=O)c1ccccc1S(=O)(=O)NC(=O)Nc1nc(Cl)cc(OC)n1` [test1020], the “Exp. ΔGsolv” value is -14 kcal/mol.
With `N#Cc1cc(Br)c(O)c(Br)c1` [Compound 0425dbr], the “Exp. ΔGsolv” value was -9 kcal/mol.
Consider `CN(C)C(=O)Nc1ccccc1` [Compound 0401amia], for which the “Exp. ΔGsolv” value was -9.63 kcal/mol.
With `CSC` [Compound 0140dim], the “Exp. ΔGsolv” value is -1.54 kcal/mol.
Regarding `CCCC(=O)O` [Compound 0088but], the “Exp. ΔGsolv” value is -6.36 kcal/mol.
Turning to `CCCCCC(=O)O` [Compound 0090hex], the “Exp. ΔGsolv” value was -6.21 kcal/mol.
With `ClCCOCCCl` [test0007], the “Exp. ΔGsolv” value is -4.23 kcal/mol.
For the compound `CCCOC(=O)c1ccc(O)cc1` [test2026], the “Exp. ΔGsolv” value is -9.37 kcal/mol.
For `C1CCOC1` [Compound 0061tet], the “Exp. ΔGsolv” value was -3.47 kcal/mol.
As to `CCOP(=S)(OCC)Oc1cc(C)nc(C(C)C)n1` [test1024], the “Exp. ΔGsolv” value is -6.5 kcal/mol.
Consider `CCOCC` [Compound 0063die], for which the “Exp. ΔGsolv” value is -1.76 kcal/mol.
`CCCCCO` [Compound 0052pen]: the “Exp. ΔGsolv” value is -4.47 kcal/mol.
Turning to `Cc1ccccc1N` [n009], the “Exp. ΔGsolv” value was -5.56 kcal/mol.
For `CCCCN(CC)C(=O)SCCC` [test1044], the “Exp. ΔGsolv” value is -3.6 kcal/mol.
On to `CC(C(=O)O)c1ccc(-c2ccccc2)c(F)c1` (stereo not shown) [test2013], for which the “Exp. ΔGsolv” value is -8.42 kcal/mol.
Turning to `CCOC(C)=O` [Compound 0095eth], the “Exp. ΔGsolv” value is -3.1 kcal/mol.
In the case of `CNC(=O)Oc1cccc2c1OC(C)(C)C2` [test1016], the “Exp. ΔGsolv” value is -9.6 kcal/mol.
On to `Nc1ccc(Nc2ccccc2)c2c1C(=O)c1ccccc1C2=O` [test1059], for which the “Exp. ΔGsolv” value was -7.4 kcal/mol.
As for `C1CCOCC1` [Compound 0244tet], the “Exp. ΔGsolv” value was -3.12 kcal/mol.
For `Sc1ccccc1` [Compound 0139thi], the “Exp. ΔGsolv” value is -2.55 kcal/mol.
Turning to `OC(C(F)(F)F)C(F)(F)F` [Compound 0212hex], the “Exp. ΔGsolv” value was -3.77 kcal/mol.
Turning to `Cn1c(=O)c2c(ncn2C)n(C)c1=O` [test2004], the “Exp. ΔGsolv” value was -12.64 kcal/mol.
Turning to `C1CCNC1` [Compound 0108pyr], the “Exp. ΔGsolv” value is -5.48 kcal/mol.
`COP(=S)(OC)SCn1nnc2ccccc2c1=O` [test1010]: the “Exp. ΔGsolv” value is -10 kcal/mol.
With `N#Cc1c(Cl)cccc1Cl` [Compound 0426dcl], the “Exp. ΔGsolv” value was -5.22 kcal/mol.
On to `Nc1ccc(N)c2c1C(=O)c1c(N)ccc(N)c1C2=O` [test1060], for which the “Exp. ΔGsolv” value is -8.9 kcal/mol.
Take `COc1ccc(C(=O)N(C)C)cc1` [test0005]: the “Exp. ΔGsolv” value was -11.01 kcal/mol.
Turning to `CCOCCOCC` [test0014], the “Exp. ΔGsolv” value is -3.54 kcal/mol.
Turning to `CCOP(=O)(OCC)OCC` [Compound 0221tri], the “Exp. ΔGsolv” value is -7.8 kcal/mol.
`CCCCC(=O)O` [Compound 0089pen]: the “Exp. ΔGsolv” value was -6.16 kcal/mol.
As for `CCCCCCCC=O` [Compound 0237oct], the “Exp. ΔGsolv” value was -2.29 kcal/mol.
On to `COc1ccccc1C(=O)O` [test3007], for which the “Exp. ΔGsolv” value was -10.32 kcal/mol.

Still in this data set, the particulars now being: experimental solvation free energy; test set with 372 neutral compounds.
For `Brc1ccccc1` [Compound 0186bro], the “Exp. ΔGsolv” value is -1.46 kcal/mol.
For `CSc1nc(NC(C)C)nc(NC(C)C)n1` [test1047], the “Exp. ΔGsolv” value is -8.4 kcal/mol.
In the case of `FC(F)(F)CCl` [Compound 0205chl], the “Exp. ΔGsolv” value is reported as 0.06 kcal/mol.
As to `CC(=O)C(C)(C)C` [Compound 0081dim], the “Exp. ΔGsolv” value is -2.89 kcal/mol.
As to `ClC(Cl)(Cl)C(Cl)(Cl)Cl` [Compound 0408hex], the “Exp. ΔGsolv” value is -1.4 kcal/mol.
Consider `C=CCBr` [Compound 0417brp], for which the “Exp. ΔGsolv” value was -0.86 kcal/mol.
Turning to `FC(F)(F)c1cccc(C(F)(F)F)c1` [test0004], the “Exp. ΔGsolv” value is on record as 1.07 kcal/mol.
With `FC(Br)C(F)(F)F` (stereo not shown) [Compound 0203bro], the “Exp. ΔGsolv” value is on record as 0.52 kcal/mol.
For `CC1CCCCC1` [Compound 0019met], the “Exp. ΔGsolv” value is 1.71 kcal/mol.
Take `CC(C)Cl` [Compound 0168chl]: the “Exp. ΔGsolv” value was -0.25 kcal/mol.
For the compound `Cc1ccccc1Cl` [Compound 0413clt], the “Exp. ΔGsolv” value was -1.15 kcal/mol.
As for `Cl/C=C\Cl` [Compound 0171Zdi], the “Exp. ΔGsolv” value was -1.17 kcal/mol.
Regarding `c1c[nH]cn1` [test0017], the “Exp. ΔGsolv” value is -9.81 kcal/mol.
With `FC(Cl)(Cl)Cl` [Compound 0422ftc], the “Exp. ΔGsolv” value is 0.82 kcal/mol.
Regarding `CCCCC(C)=O` [Compound 0080hex], the “Exp. ΔGsolv” value is -3.29 kcal/mol.
Take `ClC(Cl)(Cl)Br` [Compound 0423brt]: the “Exp. ΔGsolv” value was -0.93 kcal/mol.
Regarding `C=CC=C` [Compound 0023str], the “Exp. ΔGsolv” value was 0.61 kcal/mol.
Consider `CNc1ccccc1` [Compound 0122Nme], for which the “Exp. ΔGsolv” value is -4.68 kcal/mol.
As to `C=C(C)C` [Compound 0024met], the “Exp. ΔGsolv” value is given as 1.16 kcal/mol.
As for `Cc1ccc(C)cc1` [Compound 0040pxy], the “Exp. ΔGsolv” value was -0.81 kcal/mol.
Consider `CCNc1nc(NC(C)C)nc(SC)n1` [test1009], for which the “Exp. ΔGsolv” value is -7.7 kcal/mol.
As to `CCCN(CCC)c1c([N+](=O)[O-])cc(C(F)(F)F)cc1[N+](=O)[O-]` [test1056], the “Exp. ΔGsolv” value is -3.3 kcal/mol.
For `CCCC#N` [Compound 0128butb], the “Exp. ΔGsolv” value was -3.64 kcal/mol.
Consider `CCCCCCl` [Compound 0410clp], for which the “Exp. ΔGsolv” value is 0.07 kcal/mol.
Turning to `CC(C)C` [Compound 0010met], the “Exp. ΔGsolv” value was 2.32 kcal/mol.
With `CCCCl` [Compound 0167chla], the “Exp. ΔGsolv” value is -0.27 kcal/mol.
In the case of `ClCCl` [Compound 0161dic], the “Exp. ΔGsolv” value was -1.36 kcal/mol.
Turning to `COP(=S)(OC)Oc1cc(Cl)c(Cl)cc1Cl` [Compound 0444pho], the “Exp. ΔGsolv” value is -5.06 kcal/mol.
As for `CCCC` [Compound 0004nbu], the “Exp. ΔGsolv” value is on record as 2.08 kcal/mol.
Regarding `CCBr` [Compound 0180bro], the “Exp. ΔGsolv” value is -0.7 kcal/mol.
For the compound `C#CCCCC` [Compound 0034hex], the “Exp. ΔGsolv” value was 0.29 kcal/mol.
`BrC(Br)Br` [Compound 0179tri]: the “Exp. ΔGsolv” value was -1.98 kcal/mol.
